Measurements as given in US10976319B2, “Cell response assay for cancer and methods of producing and using same” (Siemens Healthcare Diagnostics Inc., priority 2011, dated 2021).
Where “and” joins values, the source holds several entries; their conditions need not be identical. Equal values may be shown once.

Columns and labels:
[1] = cited from earlier work; for log Ka: Eu2+ complexed by amine poly carboxylate ions
breast cancer cells = test: Cell response assay for breast cancer, cells before and after camptothecin treatment; format: cell-based
Experimental: (§1) The procedure to test the method was to collect 4 mL normal whole blood fresh into a VACUTAINER® tube (BD 6 mL VACUTAINER® K2EDTA tube, 10.8 mg, ref 367863, Becton Dickinson, Oakville, ON) and transfer the blood into a round centrifuge tube sealed with top. Cancer cells were added by 40 μL of breast cell cancer suspension to obtain a range of 3000 to 8000 cells/mL (8 cells/4 or 1-2 per high powered filed HRP (HRP=0.2 μL)). The blood was lysed by adding 3 mL of lysis buffer (155 mM NH4Cl, 20 mM KHCO3, 0.1 mM Na2EDTA, pH 7.4). The tubes were rolled tubes to assure that the cells were evenly distributed and that lysis was complete, and then the sample was spun down for 15 minutes at 12,000 rpm. Next, the plasma was decanted as waste supernatant, and 4.0 mL of TES buffer (50 mM N-Tris [Hydroxymethyl]-2-aminoethane-sulfonic acid: TES, pH 7.4, 2150 mM NaCl, 2 mM MgSO4 and 1 mM KCO3) and 1% albumin was added, and the tube was rocked to mix the cells. The tube was spun down again for 15 minutes at 12,000 rpm, and the supernatant was decanted as waste. A final 2.0 mL of TES wash buffer was added with rocking to mix cells.
(§2) The cells were then reacted with the reagents by taking 0.5 mL of washed blood to the centrifuge tube, and 40 μL of antibodies for HER2/neu labeled with Cy5 and 40 μL of antibodies for urokinase like plasminogen activator (uPA) or plasminogen activator inhibitor (PAI-1) labeled with Texas Red (at working stock of 0.001 to 0.1 mg/mL) and PL2L piwi like labeled with FITC (at working stock of 0.001 to 0.1 mg/mL) were added. Next, 10 μl of a 100 μg/ml 4,6 Diamidino-2-phenylindole dihydrochloride (DAPI; a nucleic acid binding probe) was added from a solution in TES buffer. This was followed by incubation for 15 minutes at 37° C.
(§3) The sample was centrifuged down for 5 minutes @ 7500 rpm, and the supernatant was decanted off as waste (^˜450 μL). 500 μL of TES buffer was then added, and the sample was vortexed and centrifuged down at 5 minutes @ 7500 rpm. Again, the supernatant was decanted off by tapping as waste (^˜450 μL). A final 500 μL of TES wash buffer was added for final imaging, and 5 μL of the solution was placed on a slide with a long cover slip of glass. Phase contrast and fluorescence microscopy was conducted with the Leica DM5000 (Leica Microsystems, Buffalo Grove, Ill.). A sample of cells was stained with the PSS-550 probe (ex 553, em 615 nm) and measured with an excitation band pass filter at 540-580 nm and an emission band pass filter at 610-680 nm to determine cell membrane flopping as a measure of cell death in addition to cell counts.
The Texas Red label (ex 592, em 614 nm) was measured with an excitation band pass filter at 540-580 nm and an emission band pass filter at 610-680 nm. The FITC label (ex 488, em 525 nm) was measured with an excitation band pass filter at 460-500 nm and an emission band pass filter at 512-543 nm. The DAPI probe (ex 355, em 460 nm) was measured with an excitation band pass filter at 340-380 nm and an emission band pass filter at 450-490 nm. The Cy5 label (ex 646, em 676 nm) was measured with an excitation band pass filter at 590-650 nm and an emission band pass filter at 665-735 nm.
A novel cell response assay for breast cancer was developed by using HER2/neu as a tissue type marker for carcinoma breast cancer (Biomarker A) that is always present in the disease state. […]

prostate cancer cells = test: Cell response assay for prostate cancer, cells before and after camptothecin treatment; format: cell-based
Experimental: as §1, with “prostate” for “breast”, “cells/μL” for “cells/4”
as §2, with “PSA” for “HER2/neu”
as §3, with “Ill.).” for “Ill.). A sample of cells was stained with the PSS-550 probe (ex 553, em 615 nm) and measured with an excitation band pass filter at 540-580 nm and an emission band pass filter at 610-680 nm to determine cell membrane flopping as a measure of cell death in addition to cell counts.”
The Texas Red label (ex 592, em 614 nm) was measured with a excitation band pass filter at 540-580 nm and emission band pass filter at 610-680 nm. The FITC label (ex 488, em 525 nm) was measured with an excitation band pass filter at 460-500 nm and an emission band pass filter at 512-543 nm. The DAPI probe (ex 355, em 460 nm) was measured with an excitation band pass filter at 340-380 nm and an emission band pass filter at 450-490 nm. The Cy5 label (ex 646, em 676 nm) was measured with an excitation band pass filter at 590-650 nm and an emission band pass filter at 665-735 nm.
A novel cell response assay for prostate cancer was developed by using PSA as a tissue type marker for prostate carcinoma (Biomarker A) that is always present in the disease state. […] Chemo resistance nature (Biomarker C) was determined using PL2L piwi like antigen to determine the inhibitory response to tissue invasiveness. […]

[2] = camptothecin concentration adjusted
[3] = when the cell death % was highest

Compound: O=C(O)CN(CC(=O)O)C1CCCCC1N(CC(=O)O)CC(=O)O (centres unmarked) [DCTA]
- log Ka [1]: 19

Compound: O=C(O)CN(CCN(CC(=O)O)CC(=O)O)CCN(CC(=O)O)CC(=O)O [DTPA]
- log Ka [1]: 23

Compound: O=C(O)CN(CCN(CC(=O)O)CC(=O)O)CC(=O)O [EDTA]
- log Ka [1]: 17

Compound: CC(=O)CC(=O)c1ccccc1 [HBA, benzoylacetone]
- log K ([1]; europium chelate): 18.9

Compound: O=C(O)CN(CCO)CCN(CC(=O)O)CC(=O)O [HEDTA]
- log Ka [1]: 15

Compound: O=C(O)CNCC(=O)O [IMDA]
- log Ka [1]: 6

Compound: O=C(CC(=O)C(F)(F)F)c1cccs1 [TTA, thenoyltriflouracetone]
- association constant (log Ka) ([1]; europium chelate, when converted to enolate): 8.0

Compound: CC[C@@]1(O)C(=O)OCc2c1cc1n(c2=O)Cc2cc3ccccc3nc2-1 [camptothecin]
- cancer cell count (breast cancer cells; as the cell death % increased): decrease
- phosphatidylserine flopping (breast cancer cells; as the cell death % increased): increased
- % of the cancer cells in cultures killed (breast cancer cells; [2]): > 80% and 60% and 40%
- biomarker B, namely uPA and PA1 (metastatic potential) (breast cancer cells; [3]): increase
- biomarker C, namely PL2L piwi like (chemo resistance) (breast cancer cells; [3]): decrease
- cancer cell count (prostate cancer cells; as the cell death % increased): decrease
- phosphatidylserine flopping (prostate cancer cells; as the cell death % increased): increased
- % of the cancer cells in cultures killed (prostate cancer cells; [2]): > 80% and 60% and 40%
- biomarker B, namely uPA and PA1 (metastatic potential) (prostate cancer cells; [3]): increase
- biomarker C, namely PL2L piwi like (chemo resistance) (prostate cancer cells; [3]): decrease
